Measured values reported in US9657062B2, “Ghrelin analogues” (Zealand Pharma A/S, priority 2012, dated 2017).
Where a SMILES comes first, the peptide text is derived from it. The star is where a group is joined. Octyl = CCCCCCCC*

System: normal chow-fed C57BL/6J male mice
Test: Effect on food intake in normal mice (HM-2 automated monitoring)
Assay type: in vivo, mouse
Settings: 300 nmol/kg s.c. once, light phase 0-6 h, modified protocol (food access re-opened 2 h after dosing)
Method: Normal chow-fed C57BL/6J male mice were used. The mice were kept in an automated food- and water-intake monitoring system (HM-2) which allows automated on-line measurements of accumulated food intake (FI) and other parameters. Food intake was monitored by the HM-2 system up to 24 h after dosing. The mice were kept 6 per cage, and each dosing group consisted of 6 animals.
In the initial experimental set-up with ghrelin as test compound, animals were allowed free access to food directly after treatment, and the resulting data for food intake are shown in FIG. 1A herein (vide infra).
In order to further investigate the “duration of action” of ghrelin and the other test compounds a new protocol was defined. In the modified protocol the gate to the food chambers was closed prior to dosing with vehicle or test compound and was re-opened 2 hours thereafter. The resulting data for food intake following dosing with ghrelin or vehicle are summarized in FIG. 1B (vide infra), while the corresponding data for food intake following dosing with each of the of the other four test compounds. (Compound 16, 22, 23 or 43 of the invention) or with vehicle are summarized in FIG. 2A (data for monitoring up to 6 hours after dosing) and FIG. 2B (data for monitoring up to 24 hours after dosing).

SMILES	Accumulated FI at 6h
CCCCCCCCOC[C@H](NC(=O)[C@H](CO)NC(=O)[C@@H]1CCCN1)C(=O)N[C@@H](Cc1ccccc1)C(=O)N[C@@H](CC(C)C)C(=O)N[C@@H](CO)C(=O)N1CCC[C@H]1C(=O)N[C@@H](CCC(=O)O)C(=O)N[C@@H](Cc1c[nH]cn1)C(=O)N[C@@H](CO)C(=O)N[C@@H](CCCNC(=N)N)C(=O)N[C@H](C(=O)N[C@@H](CO)C(=O)N[C@@H](CO)C(=O)N[C@@H](CCCNC(=N)N)C(=O)N[C@@H](CCCCN)C(=O)N[C@@H](CCC(=O)O)C(=O)N[C@@H](CO)C(=O)N[C@@H](CO)C(=O)N[C@@H](CO)C(=O)N1CCC[C@H]1C(=O)N1CCC[C@H]1C(=O)N[C@@H](C)C(=O)N[C@@H](CCCCN)C(=O)N[C@@H](CC(C)C)C(=O)N[C@@H](CO)C(=O)N1CCC[C@H]1C(=O)N[C@@H](CCCNC(=N)N)C(N)=O)C(C)C [Compound 47] (H-PSS(Octyl)FLSPEHSRVSSRKESSSPPAKLSPR-NH2)	1.55 ± 0.16 g
CCCCCCCCOC[C@H](NC(=O)[C@H](CO)NC(=O)[C@@H]1CCCN1)C(=O)N[C@@H](Cc1ccccc1)C(=O)N[C@@H](CC(C)C)C(=O)N[C@@H](CO)C(=O)N1CCC[C@H]1C(=O)N[C@@H](CCC(=O)O)C(=O)N[C@@H](Cc1c[nH]cn1)C(=O)N[C@@H](CO)C(=O)N[C@@H](CCCNC(=N)N)C(=O)N1CCC[C@H]1C(=O)N[C@@H](CO)C(=O)N[C@@H](CO)C(=O)N[C@@H](CCCNC(=N)N)C(N)=O [Compound 48] (H-PSS(Octyl)FLSPEHSRPSSR-NH2)	0 ± 0 g
CCCCCCCCOC[C@H](NC(=O)[C@H](CO)NC(=O)[C@@H]1CCCN1)C(=O)N[C@@H](Cc1ccccc1)C(=O)N[C@@H](CC(C)C)C(=O)N[C@@H](CO)C(=O)N1CCC[C@H]1C(=O)N[C@@H](CCC(=O)O)C(=O)N[C@@H](Cc1c[nH]cn1)C(=O)N[C@@H](CO)C(=O)N[C@@H](CCCNC(=N)N)C(=O)N[C@H](C(=O)N[C@@H](CO)C(=O)N[C@@H](CO)C(=O)N[C@@H](CCCNC(=N)N)C(=O)N1CCC[C@H]1C(=O)N[C@@H](CCC(=O)O)C(=O)N[C@@H](CO)C(=O)N[C@@H](CO)C(=O)N[C@@H](CO)C(=O)N1CCC[C@H]1C(=O)N1CCC[C@H]1C(=O)N[C@@H](C)C(=O)N[C@@H](CCCCN)C(=O)N[C@@H](CC(C)C)C(=O)N[C@@H](CO)C(=O)N1CCC[C@H]1C(=O)N[C@@H](CCCNC(=N)N)C(N)=O)C(C)C [Compound 49] (H-PSS(Octyl)FLSPEHSRVSSRPESSSPPAKLSPR-NH2)	0.6 ± 0.09 g
CCCCCCCCOC[C@H](NC(=O)[C@H](CO)NC(=O)[C@@H]1CCCN1)C(=O)N[C@@H](Cc1ccccc1)C(=O)N[C@@H](CC(C)C)C(=O)N[C@@H](CO)C(=O)N1CCC[C@H]1C(=O)N[C@@H](CCC(=O)O)C(=O)N[C@@H](Cc1c[nH]cn1)C(=O)N[C@@H](CO)C(=O)N[C@@H](CCCNC(=N)N)C(=O)N1CCC[C@H]1C(=O)N[C@@H](CO)C(=O)N[C@@H](CO)C(=O)N[C@@H](CCCNC(=N)N)C(=O)N1CCC[C@H]1C(=O)N[C@@H](CCC(=O)O)C(=O)N[C@@H](CO)C(=O)N[C@@H](CO)C(=O)N[C@@H](CO)C(=O)N1CCC[C@H]1C(=O)N1CCC[C@H]1C(=O)N[C@@H](C)C(=O)N[C@@H](CCCCN)C(=O)N[C@@H](CC(C)C)C(=O)N[C@@H](CO)C(=O)N1CCC[C@H]1C(=O)N[C@@H](CCCNC(=N)N)C(N)=O [Compound 50] (H-PSS(Octyl)FLSPEHSRPSSRPESSSPPAKLSPR-NH2)	0.19 ± 0.05 g
